This note sets out measurements from patent EP0675900B1, “ANTIBIOTICS GE 37468 A, B AND C” (Biosearch Italia S.p.A., priority 1992, dated 1994).

Series [1] concerns gram positive bacteria and gram positive as well as gram negative anaerobes. Nature of the series: Minimal inhibitory concentrations (MIC) by broth microdilution, in vitro antimicrobial activity. In kind it is cell-based. The note with it: summary in words of the in vitro spectrum; the MIC values of Table IV are printed only as an image.
The nature of series [2]: Hydrolytic degradation in acidic aqueous buffer. The series is classed as physicochemical. The note with it: kept for 6 to 18 hours in an aqueous buffer solution having a pH value between 3 and 4. The text has this: Antibiotics GE37468B and GE37468C seem to derive from antibiotic GE37468A via hydrolytic degradation. […] The physico-chemical characteristics of these two products are as follows: […]

For series [3], the system named is Staphylococcus aureus Smith. Description: Experimental septicemia in mice. In kind it is in vivo, CD1 mice. The note with it: iv, 168 h, mice infected intraperitoneally with 10^6 CFU/mouse S. aureus Smith, compound given intravenously once immediately after infection, Spearman and Kaerber method from survival at day 7. As for the experimental part:
The antimicrobial activity of antibiotic GE37468A was also confirmed in experimental septicemia in mice.
Groups of five CD1 mice of both sexes (Charles River, average weight 18-22 g) were infected intraperitoneally with 10^6 CFU/mouse of Staphylococcus aureus Smith suspended in 0.5 ml of 5% bacteriological mucin (Difco). The test compound was administered intravenously once, immediately after infection, in a sterile solution containing 10% dimethylsulfoxide, 10% Cremophor EL®, 20% 0.07 M phosphate buffer (pH 8), 60% glucose solution (5%).

Take `C=C(NC(=O)C(=C)NC(=O)c1csc(-c2ccc3c(n2)-c2csc(n2)-c2csc(n2)C2C(C)CC(O)N2C(=O)C(Cc2ccc(O)cc2)NC(=O)C2CSC(=N2)C(Cc2ccccc2)NC(=O)c2csc(n2)C(CC(N)=O)NC(=O)c2nc-3oc2C)n1)C(=O)O` (centres unmarked) [GE37468A]: in series [1], the antimicrobial activity entry is “mainly active against gram positive bacteria and gram positive as well as gram negative anaerobes”. For the same compound, the “stability in aqueous buffer solution (hydrolytic degradation)” value in series [2] is “yields substantial amounts of both antibiotic GE37468B and GE37468C”. The same compound had an ED50 in series [3] of 3.2 mg/kg. On to `Cc1oc2nc1C(=O)NC(CC(N)=O)c1nc(cs1)C(=O)NC(Cc1ccccc1)C1=NC(CS1)C(=O)NC(Cc1ccc(O)cc1)C(=O)N1C(O)CC(C)C1c1nc(cs1)-c1nc(cs1)-c1nc(-c3nc(C(N)=O)cs3)ccc1-2` (centres unmarked) [GE37468B], for which, in series [1], the antimicrobial activity result is “mainly active against gram positive bacteria and gram positive as well as gram negative anaerobes”. Still for that read-out and setting: next, `C=C(NC(=O)c1csc(-c2ccc3c(n2)-c2csc(n2)-c2csc(n2)C2C(C)CC(O)N2C(=O)C(Cc2ccc(O)cc2)NC(=O)C2CSC(=N2)C(Cc2ccccc2)NC(=O)c2csc(n2)C(CC(N)=O)NC(=O)c2nc-3oc2C)n1)C(N)=O` (centres unmarked) [GE37468C]: “mainly active against gram positive bacteria and gram positive as well as gram negative anaerobes”.
